In patent publication US20100279997A1, “ANALGESIC THAT BINDS FILAMIN A” (priority 2009, published 2010):

Target: T1, μ opiate receptor (MOR) (Rattus norvegicus, UniProt P33535)
T1 construct: from tissue; host or cells: striatal tissue (membrane preparation)
Experiment: MOR agonist activity, [35S]GTPγS binding assay using striatal membranes
Format: biochemical
Details: for [35S]GTPγS binding to Gαo, FLNA-binding compound as agonist 0.1 μM: 0.1 μM compound; for [35S]GTPγS binding to Gαo, FLNA-binding compound as agonist 0.1 μM / [35S]GTPγS binding to Gαo, FLNA-binding compound as agonist 1 μM: striatal membranes; for [35S]GTPγS binding to Gαo, FLNA-binding compound as agonist 1 μM + BFNA: 1 μM compound + 1 μM β-funaltrexamine; for [35S]GTPγS binding to Gαo, FLNA-binding compound as agonist 1 μM: 1 μM compound
Experimental: To assess the μ opiate receptor (MOR) agonist activity of positive compounds from the FLNA screening, compounds were tested in a [^35S]GTPγS binding assay using striatal membranes.
Striatal tissue was homogenized in 10 volumes of ice cold 25 mM HEPES buffer, pH 7.4, which contained 1 mM EGTA, 100 mM sucrose, 50 μg/ml leupeptin, 0.04 mM PMSF, 2 μg/ml soybean trypsin inhibitor and 0.2% 2-mercaptoethanol. The homogenates were centrifuged at 800×g for 5 minutes and the supernatants were centrifuged at 49,000×g for 20 minutes. The resulting pellets were suspended in 10 volume of reaction buffer, which contained 25 mM HEPES, pH 7.5, 100 mM NaCl, 50 μg/ml leupeptin, 2 μg/ml soybean trypsin inhibitor, 0.04 mM PMSF and 0.02% […].
The resultant striatal membrane preparation (200 μg) was admixed and maintained (incubated) at 30° C. for 5 minutes in reaction buffer as above that additionally contained 1 mM MgCl2 and 0.5 nM [^35S]GTPγS (0.1 μCi/assay, PerkinElmer Life and Analytical Sciences) in a total volume of 250 μl and continued for 5 minutes in the absence or presence of 0.1-10 μM of an assayed compound of interest. The reaction was terminated by dilution with 750 μl of ice-cold reaction buffer that contained 20 mM MgCl2 and 1 mM EGTA and immediate centrifugation at 16,000×g for 5 minutes.
The resulting pellet was solubilized by sonicating for 10 seconds in 0.5 ml of immunoprecipitation buffer containing 0.5% digitonin, 0.2% sodium cholate and 0.5% NP-40. Normal rabbit serum (1 μl) was added to 1 ml of lysate and incubated at 25° C. for 30 minutes. Nonspecific immune complexes were removed by incubation with 25 μl of protein A/G-conjugated agarose beads at 25° C. for 30 minutes followed by centrifugation at 5,000×g at 4° C. for 5 minutes. The supernatant was divided and separately incubated at 25° C. for 30 minutes with antibodies raised against Gao proteins (1:1,000 dilutions).
The immunocomplexes so formed were collected by incubation at 25° C. for 30 minutes with 40 μl of agarose-conjugated protein A/G beads and centrifugation at 5,000×g at 4° C. for 5 minutes. The pellet was washed and suspended in buffer containing 50 mM Tris-HCl, pH 8.0, and 1% NP-40. The radioactivity in the suspension was determined by liquid scintillation spectrometry. […] DAMGO (H-Tyr-D-Ala-Gly-N-MePhe-Gly-OH; 1 or 10 μM) was used as a positive control.

T1 sequence (P33535 whole entry): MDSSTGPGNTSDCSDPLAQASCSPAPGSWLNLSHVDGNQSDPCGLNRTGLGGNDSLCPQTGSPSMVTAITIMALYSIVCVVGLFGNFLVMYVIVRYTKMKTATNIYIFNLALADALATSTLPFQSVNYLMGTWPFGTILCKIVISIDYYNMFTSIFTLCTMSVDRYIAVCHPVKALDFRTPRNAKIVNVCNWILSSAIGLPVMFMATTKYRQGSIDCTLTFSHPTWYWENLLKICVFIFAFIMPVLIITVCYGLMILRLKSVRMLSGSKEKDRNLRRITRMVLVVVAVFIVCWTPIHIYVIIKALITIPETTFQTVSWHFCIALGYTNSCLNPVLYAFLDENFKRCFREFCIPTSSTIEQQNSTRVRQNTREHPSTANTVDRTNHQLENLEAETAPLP

CC1CCC(C(C)C)C(OCC(O)CN2CCCC2)C1 (stereo not drawn) [Compound A0001] was tested, and the “[35S]GTPγS binding to Gαo, FLNA-binding compound as agonist 0.1 μM” value (from here on “[35S]GTPγS binding to Gαo … as agonist 0.1 μM”) was 94.3%, the “[35S]GTPγS binding to Gαo, FLNA-binding compound as agonist 1 μM + BFNA” value (from here on “[35S]GTPγS binding … as agonist 1 μM + BFNA”) was 22.2% and the “[35S]GTPγS binding to Gαo, FLNA-binding compound as agonist 1 μM” value was 181.7%.

With CC1CCC(C(C)C)C(OCC(O)CN2CCSC2)C1 (stereo not drawn) [Compound A0002] the “[35S]GTPγS binding to Gαo … as agonist 0.1 μM” value was 155.6%, the “[35S]GTPγS binding … as agonist 1 μM + BFNA” value was 6.5% and the “[35S]GTPγS binding to Gαo, FLNA-binding compound as agonist 1 μM” value was 199.4%.

With CC1CCC(C(C)C)C(OCC(O)CN2CCSCC2)C1 (stereo not drawn) [Compound A0003] the “[35S]GTPγS binding to Gαo … as agonist 0.1 μM” value was 176.8%, the “[35S]GTPγS binding … as agonist 1 μM + BFNA” value was 17.1% and the “[35S]GTPγS binding to Gαo, FLNA-binding compound as agonist 1 μM” value was 276.0%.

CC1CCC(C(C)C)C(OCC(O)CN2CCOCC2)C1 (stereo not drawn) [Compound A0004] was tested, and the “[35S]GTPγS binding to Gαo … as agonist 0.1 μM” value was 97.4%, the “[35S]GTPγS binding … as agonist 1 μM + BFNA” value was 86.0% and the “[35S]GTPγS binding to Gαo, FLNA-binding compound as agonist 1 μM” value was 144.2%.

In the case of CC1CCC(C(C)C)C(OCC(O)CN2CCCCC2)C1 (stereo not drawn) [Compound A0005], the “[35S]GTPγS binding to Gαo … as agonist 0.1 μM” value is reported as 179.7%, the “[35S]GTPγS binding … as agonist 1 μM + BFNA” value is reported as 23.5% and the “[35S]GTPγS binding to Gαo, FLNA-binding compound as agonist 1 μM” value is reported as 239.2%.

With CC1CCN(CC(O)COC2CC(C)CCC2C(C)C)CC1 (stereo not drawn) [Compound A0006] the “[35S]GTPγS binding to Gαo … as agonist 0.1 μM” value was 170.0%, the “[35S]GTPγS binding … as agonist 1 μM + BFNA” value was 18.2% and the “[35S]GTPγS binding to Gαo, FLNA-binding compound as agonist 1 μM” value was 190.9%.

With CC1CCC(C(C)C)C(OCC(O)CN2CCCCC2C)C1 (stereo not drawn) [Compound A0007] the “[35S]GTPγS binding to Gαo … as agonist 0.1 μM” value was 102.0%, the “[35S]GTPγS binding … as agonist 1 μM + BFNA” value was 40.4% and the “[35S]GTPγS binding to Gαo, FLNA-binding compound as agonist 1 μM” value was 221.9%.

CC1CCC(C(C)C)C(OCC(O)CN2CC(C)CC(C)C2)C1 (stereo not drawn) [Compound A0008] was tested, and the “[35S]GTPγS binding to Gαo … as agonist 0.1 μM” value was 163.8%, the “[35S]GTPγS binding … as agonist 1 μM + BFNA” value was 133.9% and the “[35S]GTPγS binding to Gαo, FLNA-binding compound as agonist 1 μM” value was 235.0%.

In the case of CC1CCC(C(C)C)C(OCC(O)CN2CCN(C)CC2)C1 (stereo not drawn) [Compound A0009], the “[35S]GTPγS binding to Gαo … as agonist 0.1 μM” value is reported as 70.2%, the “[35S]GTPγS binding … as agonist 1 μM + BFNA” value is reported as 93.9% and the “[35S]GTPγS binding to Gαo, FLNA-binding compound as agonist 1 μM” value is reported as 126.4%.

For CC1CCC(C(C)C)C(OCC(O)CN2CCCN(C)CC2)C1 (stereo not drawn) [Compound A0010], the “[35S]GTPγS binding to Gαo … as agonist 0.1 μM” value was 277.2%, the “[35S]GTPγS binding … as agonist 1 μM + BFNA” value was 190.3% and the “[35S]GTPγS binding to Gαo, FLNA-binding compound as agonist 1 μM” value was 319.0%.

In the case of COc1ccc(N2CCN(CC(O)COC3CC(C)CCC3C(C)C)CC2)c(OC)c1 (stereo not drawn) [Compound A0012], the “[35S]GTPγS binding to Gαo … as agonist 0.1 μM” value is reported as 149.3%, the “[35S]GTPγS binding … as agonist 1 μM + BFNA” value is reported as 122.4% and the “[35S]GTPγS binding to Gαo, FLNA-binding compound as agonist 1 μM” value is reported as 185.7%.

In the case of CC1CCC(C(C)C)C(OCC(O)CN2CCCCCC2)C1 (stereo not drawn) [Compound A0013], the “[35S]GTPγS binding to Gαo … as agonist 0.1 μM” value is reported as 102.1%, the “[35S]GTPγS binding … as agonist 1 μM + BFNA” value is reported as 86.1% and the “[35S]GTPγS binding to Gαo, FLNA-binding compound as agonist 1 μM” value is reported as 164.8%.

CC1CCC(C(C)C)C(OCC(O)CN2CCCCCCC2)C1 (stereo not drawn) [Compound A0014] was tested, and the “[35S]GTPγS binding to Gαo … as agonist 0.1 μM” value was 147.0%, the “[35S]GTPγS binding … as agonist 1 μM + BFNA” value was 140.8% and the “[35S]GTPγS binding to Gαo, FLNA-binding compound as agonist 1 μM” value was 174.9%.

CC1CCC(C(C)C)C(OCC(O)CN2CCC2)C1 (stereo not drawn) [Compound A0015] was tested, and the “[35S]GTPγS binding to Gαo … as agonist 0.1 μM” value was 110.9%, the “[35S]GTPγS binding … as agonist 1 μM + BFNA” value was 62.5% and the “[35S]GTPγS binding to Gαo, FLNA-binding compound as agonist 1 μM” value was 150.1%.
